Data from ChEMBL document CHEMBL5537117, “Novel 3-hydroxypyridin-4(1H)-One derivatives as ferroptosis inhibitors with iron-chelating and reactive oxygen species scavenging activities and therapeutic effect in cisplatin-induced cytotoxicity” (Eur J Med Chem, 2024).
The source made the active and inactive calls. The calls are words filed in the database; no cut-off is given here.

Test system: not listed separately
Test: Antioxidant activity assessed as ABTS radical scavenging activity incubated in dark for 6 mins by absorbance based microplate reader analysis
Format: functional
Settings: not given

Compound	IC50 [µM]
Cc1ccccc1/C=C/C(=O)Nn1ccc(=O)c(O)c1C	4.68
Cc1c(O)c(=O)ccn1C [DEFERIPRONE]	9.7
Cc1c(O)c(=O)ccn1NC(=O)/C=C/c1ccc(F)cc1F	7.51
COc1ccc(/C=C/C(=O)Nn2ccc(=O)c(O)c2C)cc1	5.17
Cc1cccc(/C=C/C(=O)Nn2ccc(=O)c(O)c2C)c1C	10.2
O=C(O)/C=C/c1ccccc1 [CINNAMIC ACID]	> 100
COc1ccccc1/C=C/C(=O)Nn1ccc(=O)c(O)c1C	4.78

Test system: not listed separately
Test: Antioxidant activity assessed as trolox equivalent of ORAC radical scavenging activity at 8 uM
Format: functional
Settings: not given

Compound	Activity
Cc1ccccc1/C=C/C(=O)Nn1ccc(=O)c(O)c1C	3.09
Cc1c(O)c(=O)ccn1C [DEFERIPRONE]	9.19
Cc1c(O)c(=O)ccn1NC(=O)/C=C/c1ccc(F)cc1F	2.67
COc1ccc(/C=C/C(=O)Nn2ccc(=O)c(O)c2C)cc1	19.4
Cc1cccc(/C=C/C(=O)Nn2ccc(=O)c(O)c2C)c1C	13.1
O=C(O)/C=C/c1ccccc1 [CINNAMIC ACID]	1.13
COc1ccccc1/C=C/C(=O)Nn1ccc(=O)c(O)c1C	14.6

Test system: not listed separately
Test: Antioxidant activity assessed as trolox equivalent of ORAC radical scavenging activity at 4 uM
Format: functional
Settings: not given

Compound	Activity
Cc1ccccc1/C=C/C(=O)Nn1ccc(=O)c(O)c1C	0.97
Cc1c(O)c(=O)ccn1C [DEFERIPRONE]	4.73
Cc1c(O)c(=O)ccn1NC(=O)/C=C/c1ccc(F)cc1F	1.17
COc1ccc(/C=C/C(=O)Nn2ccc(=O)c(O)c2C)cc1	9.42
Cc1cccc(/C=C/C(=O)Nn2ccc(=O)c(O)c2C)c1C	7.64
O=C(O)/C=C/c1ccccc1 [CINNAMIC ACID]	1.27
COc1ccccc1/C=C/C(=O)Nn1ccc(=O)c(O)c1C	8.92

Test system: HT-22
Test: Cytotoxicity against mouse HT-22 cells assessed as reduction in cell viability at 150 uM by MTT assay relative to control
Format: toxicity, cell-based
Settings: ht-22, 150 µM

Compound	Activity [%]
Cc1c(O)c(=O)ccn1C [DEFERIPRONE]	> 80
COc1ccccc1/C=C/C(=O)Nn1ccc(=O)c(O)c1C	> 80

Test system: L02
Test: Cytotoxicity against human L02 cells assessed as reduction in cell viability at upto 100 uM by MTT assay
Format: toxicity, cell-based
Settings: l02, 100 µM

Compound	Activity
Cc1c(O)c(=O)ccn1C [DEFERIPRONE]	Non-Toxic

Test system: HT-22
Test: Anti-ferroptotic activity in erastin-induced ferroptosis in mouse HT-22 cells assessed as cell viability incubated for 24 hrs by MTT assay
Format: functional, cell-based
Settings: HT-22, 24 h

Compound	EC50 [µM]
Cc1c(O)c(=O)ccn1C [DEFERIPRONE]	165
COc1ccc(/C=C/C(=O)Nn2ccc(=O)c(O)c2C)cc1	28.9
COc1ccccc1/C=C/C(=O)Nn1ccc(=O)c(O)c1C	18.2

Test system: HEK-293T
Test: Protection against cisplatin-induced cytotoxicity in HEK293T cells assessed as cell viability measured after 24 to 48 hrs by MTT assay
Format: functional, cell-based
Settings: Homo sapiens

Compound	EC50 [µM]
Cc1c(O)c(=O)ccn1C [DEFERIPRONE]	40

Test system: HEK-293T
Test: Protection against cisplatin-induced cytotoxicity in HEK293T cells assessed as reduction in attenuation of intracellular Fe2+ at 30 to 80 uM measured after 24 hrs by FeRhoNox-1 based flow cytometry analysis
Format: functional, cell-based
Settings: Homo sapiens, dose 30-80 µM

Compound	Activity
Cc1c(O)c(=O)ccn1C [DEFERIPRONE]	Active

Test system: not listed separately
Test: Acid dissociation constant, pKa1 of the compound in 0.1M KCl at pH 2.0 to 10.5 by UV absorption method
Format: physicochemical
Settings: not given

Compound	pKa
Cc1ccccc1/C=C/C(=O)Nn1ccc(=O)c(O)c1C	2.23
Cc1c(O)c(=O)ccn1NC(=O)/C=C/c1ccc(F)cc1F	2.57
COc1ccc(/C=C/C(=O)Nn2ccc(=O)c(O)c2C)cc1	2.42
Cc1cccc(/C=C/C(=O)Nn2ccc(=O)c(O)c2C)c1C	2.38
COc1ccccc1/C=C/C(=O)Nn1ccc(=O)c(O)c1C	2.46

Test system: not listed separately
Test: Acid dissociation constant, pKa2 of the compound in 0.1M KCl at pH 2.0 to 10.5 by UV absorption method
Format: physicochemical
Settings: not given

Compound	pKa
Cc1ccccc1/C=C/C(=O)Nn1ccc(=O)c(O)c1C	6.98
Cc1c(O)c(=O)ccn1C [DEFERIPRONE]	9.93
Cc1c(O)c(=O)ccn1NC(=O)/C=C/c1ccc(F)cc1F	6.83
COc1ccc(/C=C/C(=O)Nn2ccc(=O)c(O)c2C)cc1	7.41
Cc1cccc(/C=C/C(=O)Nn2ccc(=O)c(O)c2C)c1C	7.06
COc1ccccc1/C=C/C(=O)Nn1ccc(=O)c(O)c1C	7.09

Test system: not listed separately
Test: Acid dissociation constant, pKa3 of the compound in 0.1M KCl at pH 2.0 to 10.5 by UV absorption method
Format: physicochemical
Settings: not given

Compound	pKa
Cc1ccccc1/C=C/C(=O)Nn1ccc(=O)c(O)c1C	10.2
Cc1c(O)c(=O)ccn1NC(=O)/C=C/c1ccc(F)cc1F	10.2
COc1ccc(/C=C/C(=O)Nn2ccc(=O)c(O)c2C)cc1	10.3
Cc1cccc(/C=C/C(=O)Nn2ccc(=O)c(O)c2C)c1C	10.3
COc1ccccc1/C=C/C(=O)Nn1ccc(=O)c(O)c1C	10.3

Test system: not listed separately
Test: Metal chelating activity assessed as Fe3+ chelation
Settings: not given

Compound	Activity
Cc1ccccc1/C=C/C(=O)Nn1ccc(=O)c(O)c1C	17.6
Cc1c(O)c(=O)ccn1C [DEFERIPRONE]	17.9
Cc1c(O)c(=O)ccn1NC(=O)/C=C/c1ccc(F)cc1F	17.5
COc1ccc(/C=C/C(=O)Nn2ccc(=O)c(O)c2C)cc1	17.1
Cc1cccc(/C=C/C(=O)Nn2ccc(=O)c(O)c2C)c1C	17.5
COc1ccccc1/C=C/C(=O)Nn1ccc(=O)c(O)c1C	17.4

Test system: not listed separately
Test: Log K1 of the compound in 0.1M KCl at pH 0.9 to 2.1 by UV absorption method
Format: physicochemical
Settings: not given

Compound	log(activity)
Cc1ccccc1/C=C/C(=O)Nn1ccc(=O)c(O)c1C	13.79
Cc1c(O)c(=O)ccn1C [DEFERIPRONE]	14.12
Cc1c(O)c(=O)ccn1NC(=O)/C=C/c1ccc(F)cc1F	14.11
COc1ccc(/C=C/C(=O)Nn2ccc(=O)c(O)c2C)cc1	14.01
Cc1cccc(/C=C/C(=O)Nn2ccc(=O)c(O)c2C)c1C	14.07
COc1ccccc1/C=C/C(=O)Nn1ccc(=O)c(O)c1C	14.14

Test system: not listed separately
Test: Log K2 of the compound in 0.1M KCl at pH 2.0 to 10.5 by UV absorption method
Format: physicochemical
Settings: not given

Compound	log(activity)
Cc1ccccc1/C=C/C(=O)Nn1ccc(=O)c(O)c1C	25.95
Cc1c(O)c(=O)ccn1C [DEFERIPRONE]	25.8
Cc1c(O)c(=O)ccn1NC(=O)/C=C/c1ccc(F)cc1F	26.11
COc1ccc(/C=C/C(=O)Nn2ccc(=O)c(O)c2C)cc1	26.09
Cc1cccc(/C=C/C(=O)Nn2ccc(=O)c(O)c2C)c1C	26.22
COc1ccccc1/C=C/C(=O)Nn1ccc(=O)c(O)c1C	26.17

Test system: not listed separately
Test: Log K3 of the compound in 0.1M KCl at pH 2.0 to 10.5 by UV absorption method
Format: physicochemical
Settings: not given

Compound	log(activity)
Cc1ccccc1/C=C/C(=O)Nn1ccc(=O)c(O)c1C	35.43
Cc1c(O)c(=O)ccn1C [DEFERIPRONE]	34.97
Cc1c(O)c(=O)ccn1NC(=O)/C=C/c1ccc(F)cc1F	35.31
COc1ccc(/C=C/C(=O)Nn2ccc(=O)c(O)c2C)cc1	35.52
Cc1cccc(/C=C/C(=O)Nn2ccc(=O)c(O)c2C)c1C	35.67
COc1ccccc1/C=C/C(=O)Nn1ccc(=O)c(O)c1C	35.48
